Patent US20230399342A1 (Incyte Corporation, priority 2022, published 2023)

Tests used:
DGKζ = DGKζ (Homo sapiens (Human), UniProt Q13574); experiment: In vitro DGKζ inhibition assay (ADP-Glo); format: biochemical; settings: His-tagged human recombinant enzyme, 0.4 nM DGK, 30 μM ATP, 20 μM DLG, 90 minute incubation
In short: (§1)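 His-tagged human DGKα (0.1 nM, 50 μM ATP) or DGKζ (0.4 nM, 30 μM ATP), each with 20 μM DLG, in Tris pH 7.5 buffer with CHAPS, Mg2+, Ca2+.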

DGKα = DGKα (Homo sapiens (Human), UniProt P23743); experiment: In vitro DGKα inhibition assay (ADP-Glo); format: biochemical; settings: His-tagged human recombinant enzyme, 0.1 nM DGKα, 50 μM ATP, 20 μM DLG, 90 minute incubation
Sequence of DGKα (P23743 whole entry): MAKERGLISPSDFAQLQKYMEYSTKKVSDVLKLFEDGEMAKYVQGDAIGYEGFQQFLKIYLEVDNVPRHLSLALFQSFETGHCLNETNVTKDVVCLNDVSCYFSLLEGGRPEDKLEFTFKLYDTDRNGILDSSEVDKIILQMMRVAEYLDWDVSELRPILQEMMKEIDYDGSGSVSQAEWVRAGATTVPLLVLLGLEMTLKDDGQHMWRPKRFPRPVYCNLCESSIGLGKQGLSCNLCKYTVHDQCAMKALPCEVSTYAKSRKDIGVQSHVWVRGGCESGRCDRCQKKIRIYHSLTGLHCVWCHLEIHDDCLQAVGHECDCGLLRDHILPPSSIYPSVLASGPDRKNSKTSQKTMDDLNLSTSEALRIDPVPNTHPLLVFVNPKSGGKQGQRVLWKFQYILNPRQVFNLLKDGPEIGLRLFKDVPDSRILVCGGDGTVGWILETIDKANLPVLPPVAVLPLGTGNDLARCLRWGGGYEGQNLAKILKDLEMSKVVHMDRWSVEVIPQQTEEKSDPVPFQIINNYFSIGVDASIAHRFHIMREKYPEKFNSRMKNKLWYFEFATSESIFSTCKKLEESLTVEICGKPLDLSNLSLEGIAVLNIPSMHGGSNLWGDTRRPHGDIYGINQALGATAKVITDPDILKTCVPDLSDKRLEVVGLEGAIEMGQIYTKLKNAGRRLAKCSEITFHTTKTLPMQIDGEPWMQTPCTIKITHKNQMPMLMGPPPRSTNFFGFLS
In short: as §1

Sequence of DGKζ (Q13574 whole entry): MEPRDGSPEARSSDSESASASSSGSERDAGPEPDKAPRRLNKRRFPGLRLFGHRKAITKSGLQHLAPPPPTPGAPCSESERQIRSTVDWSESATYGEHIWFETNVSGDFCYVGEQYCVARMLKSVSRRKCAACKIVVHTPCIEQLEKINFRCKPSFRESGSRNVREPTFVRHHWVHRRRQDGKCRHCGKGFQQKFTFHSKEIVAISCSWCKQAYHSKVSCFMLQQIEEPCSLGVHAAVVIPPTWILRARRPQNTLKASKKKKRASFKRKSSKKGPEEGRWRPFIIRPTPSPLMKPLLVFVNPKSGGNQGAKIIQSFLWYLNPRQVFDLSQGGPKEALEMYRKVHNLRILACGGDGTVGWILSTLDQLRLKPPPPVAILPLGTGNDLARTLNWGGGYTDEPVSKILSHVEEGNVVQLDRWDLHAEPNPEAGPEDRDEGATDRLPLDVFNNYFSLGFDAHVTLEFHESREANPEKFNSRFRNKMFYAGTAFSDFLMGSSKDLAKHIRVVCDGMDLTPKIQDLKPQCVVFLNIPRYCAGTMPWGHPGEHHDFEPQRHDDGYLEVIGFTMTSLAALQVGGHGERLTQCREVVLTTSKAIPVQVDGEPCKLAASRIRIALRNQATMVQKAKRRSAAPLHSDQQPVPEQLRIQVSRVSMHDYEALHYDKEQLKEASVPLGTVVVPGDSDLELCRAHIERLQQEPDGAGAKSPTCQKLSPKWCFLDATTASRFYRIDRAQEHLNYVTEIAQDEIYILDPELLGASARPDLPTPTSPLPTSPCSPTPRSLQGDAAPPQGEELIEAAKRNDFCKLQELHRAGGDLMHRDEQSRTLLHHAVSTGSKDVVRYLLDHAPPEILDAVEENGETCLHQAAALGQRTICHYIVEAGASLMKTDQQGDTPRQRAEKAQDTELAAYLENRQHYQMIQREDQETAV

Compound	IC50 (DGKζ) [nM]	IC50 (DGKα) [nM]
Cc1nc2c(N3C[C@@H](C)N(C(c4ccc(Br)cc4)c4ccc(Br)cc4)C[C@@H]3C)nc3nncn3c2n1C[C@@H]1CCCO1 [Example 108, 4-((2S,5R)-4-(Bis(4-bromophenyl)methyl)-2,5-dimethylpiperazin-1-yl)-2-methyl-1-(((S)-tetrahydrofuran-2-yl)methyl)-1H-[1,2,4]triazolo[3,4-b]purine]	≤ 20	≤ 20
C[C@@H]1CN(c2nc3nncn3c3c2ncn3CCN(C)C)[C@@H](C)CN1C(c1ccc(Br)cc1)c1ccc(Br)cc1 [Example 109, 2-(4-((2S,5R)-4-(Bis(4-bromophenyl)methyl)-2,5-dimethylpiperazin-1-yl)-1H-[1,2,4]triazolo[3,4-b]purin-1-yl)-N,N-dimethylethan-1-amine]	≤ 20	≤ 20
C[C@@H]1CN(c2nc3nncn3c3c2nnn3C[C@H]2CCCO2)[C@@H](C)CN1C(c1ccc(Br)cc1)c1ccc(Br)cc1 [Example 110, 4-((2S,5R)-4-(Bis(4-bromophenyl)methyl)-2,5-dimethylpiperazin-1-yl)-1-(((R)-tetrahydrofuran-2-yl)methyl)-1H-[1,2,3]triazolo[4,5-e][1,2,4]triazolo[4,3-a]pyrimidine]	≤ 20	≤ 20
C[C@@H]1CN(c2nc3nncn3c3c2nnn3C[C@@H]2CCCO2)[C@@H](C)CN1C(c1ccc(Br)cc1)c1ccc(Br)cc1 [Example 111, 4-((2S,5R)-4-(Bis(4-bromophenyl)methyl)-2,5-dimethylpiperazin-1-yl)-1-(((S)-tetrahydrofuran-2-yl)methyl)-1H-[1,2,3]triazolo[4,5-e][1,2,4]triazolo[4,3-a]pyrimidine]	≤ 20	≤ 20
C[C@@H]1CN(c2nc3nncn3c3c2ncn3CCN(C)C)[C@@H](C)CN1C(c1ccc(C(F)(F)F)cn1)c1ccc(C(F)(F)F)cn1 [Example 112, 2-(4-((2S,5R)-4-(Bis(5-(trifluoromethyl)pyridin-2-yl)methyl)-2,5-dimethylpiperazin-1-yl)-1H-[1,2,4]triazolo[3,4-b]purin-1-yl)-N,N-dimethylethan-1-amine]	≤ 20	≤ 20
Cc1nc2c(N3C[C@@H](C)N(C(c4ccc(F)c(Cl)c4)[C@H]4C[C@H](C(F)(F)F)C4)C[C@@H]3C)nc3nncn3c2n1C[C@@H]1CCCO1 (stereo partly drawn) [Example 113, 4-((2S,5R)-4-((3-Chloro-4-fluorophenyl)((trans)-3-(trifluoromethyl)cyclobutyl)methyl)-2,5-dimethylpiperazin-1-yl)-2-methyl-1-(((S)-tetrahydrofuran-2-yl)methyl)-1H-[1,2,4]triazolo[3,4-b]purine]	≤ 20	≤ 20
C[C@@H]1CN(c2nc3nncn3c3c2ncn3CCN(C)C)[C@@H](C)CN1C(c1ccc(F)c(Cl)c1)[C@H]1C[C@H](C(F)(F)F)C1 (stereo partly drawn) [Example 114, 2-(4-((2S,5R)-4-((3-chloro-4-fluorophenyl)((trans)-3-(trifluoromethyl)cyclobutyl)methyl)-2,5-dimethylpiperazin-1-yl)-1H-[1,2,4]triazolo[3,4-b]purin-1-yl)-N,N-dimethylethan-1-amine]	≤ 20	≤ 20
Cc1nc2c(N3C[C@@H](C)N(C(c4ccc(C(F)(F)F)cc4)[C@H]4C[C@H](C(F)(F)F)C4)C[C@@H]3C)nc3nncn3c2n1C[C@@H]1CCCO1 (stereo partly drawn) [Example 115, 4-((2S,5R)-2,5-Dimethyl-4-(((trans)-3-(trifluoromethyl)cyclobutyl)(4-(trifluoromethyl)phenyl)methyl)piperazin-1-yl)-2-methyl-1-(((S)-tetrahydrofuran-2-yl)methyl)-1H-[1,2,4]triazolo[3,4-b]purine]	≤ 20	≤ 20
C[C@@H]1CN(c2nc3nncn3c3c2ncn3CCN(C)C)[C@@H](C)CN1C(c1ccc(C(F)(F)F)cc1)[C@H]1C[C@H](C(F)(F)F)C1 (stereo partly drawn) [Example 116, 2-(4-((2S,5R)-2,5-Dimethyl-4-(((trans)-3-(trifluoromethyl)cyclobutyl)(4-(trifluoromethyl)phenyl)methyl)piperazin-1-yl)-1H-[1,2,4]triazolo[3,4-b]purin-1-yl)-N,N-dimethylethan-1-amine]	≤ 20	≤ 20
Cc1nc2c(N3C[C@@H](C)N(C(c4ccc(C(F)(F)F)cc4)C4CCC(F)(F)CC4)C[C@@H]3C)nc3nncn3c2n1C[C@@H]1CCCO1 (stereo partly drawn) [Example 117, 4-((2S,5R)-4-((4,4-Difluorocyclohexyl)(4-(trifluoromethyl)phenyl)methyl)-2,5-dimethylpiperazin-1-yl)-2-methyl-1-(((S)-tetrahydrofuran-2-yl)methyl)-1H-[1,2,4]triazolo[3,4-b]purine]	≤ 20	≤ 20
Cc1nc2c(N3C[C@@H](C)N([C@H](c4ccc(OC(F)(F)F)cc4)C(C)C)C[C@@H]3C)nc3nncn3c2n1C[C@@H]1CCCO1 [Example 118, 4-((2S,5R)-2,5-Dimethyl-4-((S)-2-methyl-1-(4-(trifluoromethoxy)phenyl)propyl)piperazin-1-yl)-2-methyl-1-(((S)-tetrahydrofuran-2-yl)methyl)-1H-[1,2,4]triazolo[3,4-b]purine]	≤ 20	≤ 20
Cc1nc2c(N3C[C@@H](C)N([C@@H](c4ccc(OC(F)(F)F)cc4)C(C)C)C[C@@H]3C)nc3nncn3c2n1C[C@@H]1CCCO1 [Example 119, 4-((2S,5R)-2,5-dimethyl-4-((R)-2-methyl-1-(4-(trifluoromethoxy)phenyl)propyl)piperazin-1-yl)-2-methyl-1-(((S)-tetrahydrofuran-2-yl)methyl)-1H-[1,2,4]triazolo[3,4-b]purine]	≤ 20	≤ 20
CC[C@@H]1CN(c2nc3nncn3c3c2nnn3C[C@@H]2CCCO2)[C@@H](C)CN1C(c1ccc(Cl)cc1)C1CC(F)(F)C1 (stereo partly drawn) [Example 121, 4-((2S,5R)-4-((4-Chlorophenyl)(3,3-difluorocyclobutyl)methyl)-5-ethyl-2-methylpiperazin-1-yl)-1-(((S)-tetrahydrofuran-2-yl)methyl)-1H-[1,2,3]triazolo[4,5-e][1,2,4]triazolo[4,3-a]pyrimidine]	≤ 20	≤ 20
Cc1nc2c(N3C[C@@H](CO)N(C(c4ccc(C(F)(F)F)cc4)C4CC(F)(F)C4)C[C@@H]3C)nc3nncn3c2n1C[C@@H]1CCCO1 (stereo partly drawn) [Example 122, ((2S,5S)-1-((3,3-Difluorocyclobutyl)(4-(trifluoromethyl)phenyl)methyl)-5-methyl-4-(2-methyl-1-(((S)-tetrahydrofuran-2-yl)methyl)-1H-[1,2,4]triazolo[3,4-b]purin-4-yl)piperazin-2-yl)methanol]	≤ 20	≤ 20
Cc1nc2c(N3C[C@@H]([C@@H](C)O)N(C(c4ccc(F)cc4)c4ccc(F)cc4)C[C@@H]3C)nc3nncn3c2n1C[C@@H]1CCCO1 [Example 123, (R)-1-((2S,5S)-1-(Bis(4-fluorophenyl)methyl)-5-methyl-4-(2-methyl-1-(((S)-tetrahydrofuran-2-yl)methyl)-1H-[1,2,4]triazolo[3,4-b]purin-4-yl)piperazin-2-yl)ethan-1-ol]	≤ 20	≤ 20
Cc1nc2c(N3C[C@@H]([C@H](C)O)N(C(c4ccc(F)cc4)c4ccc(F)cc4)C[C@@H]3C)nc3nncn3c2n1C[C@@H]1CCCO1 [Example 124, (S)-1-((2S,5S)-1-(bis(4-fluorophenyl)methyl)-5-methyl-4-(2-methyl-1-(((S)-tetrahydrofuran-2-yl)methyl)-1H-[1,2,4]triazolo[3,4-b]purin-4-yl)piperazin-2-yl)ethan-1-ol]	≤ 20	≤ 20
CC[C@@H]1CN(c2nc3nncn3c3c2nc(C)n3C[C@@H]2CCCO2)[C@@H](C)CN1C(CO)(c1ccc(F)cc1)c1ccc(F)cc1 [Example 125, 2-((2R,5S)-2-Ethyl-5-methyl-4-(2-methyl-1-(((S)-tetrahydrofuran-2-yl)methyl)-1H-[1,2,4]triazolo[3,4-b]purin-4-yl)piperazin-1-yl)-2,2-bis(4-fluorophenyl)ethan-1-01]	≤ 20	≤ 20
CC[C@@H]1CN(c2nc3nncn3c3c2nc(C)n3C[C@@H]2CCCO2)[C@@H](C)CN1[C@H](c1ccc(OC(F)F)cc1)C(C)C [Example 126, 4-((2S,5R)-4-((S)-1-(4-(Difluoromethoxy)phenyl)-2-methylpropyl)-5-ethyl-2-methylpiperazin-1-yl)-2-methyl-1-(((S)-tetrahydrofuran-2-yl)methyl)-1H-[1,2,4]triazolo[3,4-b]purine]	≤ 20	≤ 20
CC[C@@H]1CN(c2nc3nncn3c3c2nc(C)n3C[C@@H]2CCCO2)[C@@H](C)CN1[C@@H](c1ccc(OC(F)F)cc1)C(C)C [Example 127, 4-((2S,5R)-4-((R)-1-(4-(difluoromethoxy)phenyl)-2-methylpropyl)-5-ethyl-2-methylpiperazin-1-yl)-2-methyl-1-(((S)-tetrahydrofuran-2-yl)methyl)-1H-[1,2,4]triazolo[3,4-b]purine]	≤ 20	≤ 20
CC[C@@H]1CN(c2nc3nncn3c3c2nc(C)n3C[C@@H]2CCCO2)[C@@H](C)CN1[C@H](c1ccc(C(F)(F)F)cc1)C(C)C [Example 128, 4-((2S,5R)-5-Ethyl-2-methyl-4-((S)-2-methyl-1-(4-(trifluoromethyl)phenyl)propyl)piperazin-1-yl)-2-methyl-1-(((S)-tetrahydrofuran-2-yl)methyl)-1H-[1,2,4]triazolo[3,4-b]purine]	≤ 20	≤ 20
CC[C@@H]1CN(c2nc3nncn3c3c2nc(C)n3C[C@@H]2CCCO2)[C@@H](C)CN1[C@@H](c1ccc(C(F)(F)F)cc1)C(C)C [Example 129, 4-((2S,5R)-5-Ethyl-2-methyl-4-((R)-2-methyl-1-(4-(trifluoromethyl)phenyl)propyl)piperazin-1-yl)-2-methyl-1-(((S)-tetrahydrofuran-2-yl)methyl)-1H-[1,2,4]triazolo[3,4-b]purine]	≤ 20	≤ 20
